Where two headings read alike, the source gives them in different places.
Tests used:
[1] = target: mu-opioid receptor (MOR) (Homo sapiens (Human), UniProt P35372); experiment: cell-based; conditions: for AUC: AUC of [Ca2+]i fluorescence, CHO-K1/MOR/Gα15 cells
[2] = tested on: B6 mice; experiment: Tail-flick test; format: in vivo, mouse; design: key to Activity of tail-flick test: ++: 25 mg/kg (intravenous) or 50 nmol (intrathecal) active; +: 100 mg/kg (intravenous) active; conditions: mice; compound given intravenous or intrathecal
Method: In an exemplary in vivo method, a test compound and a MOR antagonist are injected into a mouse pain model (for example, intravenous but not limited), basal latencies are recorded before the treatment and test latencies are recorded at various specified times after the injection, and a time-response curve is recorded and AUC values are calculated to determine whether an analgesic effect is exerted on the mouse. The test compound is confirmed to be an antagonist-to-agonist allosteric modifier of the MOR upon observation of an analgesic effect.
Male wild-type (WT) B6 mice (25-30 g) were kept in a temperature-controlled animal room with a 12-h light/dark cycle. The protocol has been approved by the Institutional Animal Care and Use Committee of the National Health Research Institutes, Taiwan. Animal experiments were carried out in accordance with the Policies on the Use of Animals in Neuroscience Research and the ethical guidelines for investigations of experimental pain in conscious animals, International Association for the Study of Pain. Tail-Flick Analgesia Meter (Columbia Instruments) was used to measure the tail-flick latencies of mice. The cut-off time for each measurement was 10 s to avoid tissue damage. Basal latencies were recorded before treatment and test latencies were recorded 30, 60, 90, 120 and 180 min after an intravenous injection of drugs. […] ED50 values were determined by the up-and-down method reported in Crocker et al., Pharmacol Biochem Behav, 1984, 21, 133-136.
An in vivo study, i.e., tail-flick test, was performed to investigate whether AAMs could change innate character of μ-opioid receptor in the presence of naloxone. […] In mice injected with naloxone (10 mg/kg; s.c.), the ED50 value of compound 58 in inhibition of the tail-flick response was determined to be 23.1±7.1 nmole.

[3] = tested on: DOR; experiment: cAMP assay (adenylyl cyclase inhibition) in HEK-DOR cells; format: cell-based
Method: Human embryonic kidney 293 (HEK-293) cells constitutively expressing MOR (HEK-MOR) and DOR (HEK-DOR) (kindly provided by Dr. Ping-Yee Law, University of Minnesota, USA) were cultured in high-glucose Dulbecco's modified Eagle's medium (DMEM, GIBCO) supplemented with 400 μg/mL G418 (Sigma), 2 mM L-glutamine and P/S/F (100 units/mL penicillin, 100 μg/mL streptomycin, 10% fetal bovine serum). Chinese hamster ovary (CHO)-K1 cells, stably expressing hMOR and Gα15 (CHO-K1/MOR/Gα15), were cultured in F12 medium (GIBCO) supplemented with 10 μg/mL Hygromycin B (Invivogen), 20 μg/mL Zeocin (Invivogen) P/S/F (100 units/mL penicillin, 100 μg/mL streptomycin, 10% fetal bovine serum). The cultures were incubated at 37° C. in a humidified 5% CO2 incubator.
Briefly, 2000 HEK-MOR cells or HEK-DOR cells were plated in 10 μL/well of DMEM in 96-well solid bottom white plates and 10 μL/well compound in HBSS in the presence with 1 μM forskolin and 100 μM 3-isobutyl-1-methylxanthine (IBMX). After 30 minutes of incubation at room temperature, 10 μL/well of labeled d2-cAMP and 10 μL/well of anti-cAMP antibody (both diluted in lysis buffer) were added to each well. Two hours later, plates were measured using the FlexStationIII (Molecular Devices Corp.) with excitation at 330 nm and emissions of 620 nm and 665 nm.
To characterize of novel opioid receptor AAMs, the activity and selectivity of compound 58 were tested by inhibiting adenylyl cyclase activity (i.e., cAMP assay).
Opoid receptors inhibit adenylyl cyclase activity through Gi/o family of heterotrimeric G proteins. A cAMP-accumulation assay was performed to determine whether opioid receptor AAMs affect a G protein-dependent signaling pathway.

[4] = EC50, CHO-K1/MOR/Gα15 cells, combined with a MOR antagonist
[5] = combined with a MOR antagonist, read-out: FLIPR Ca^2+ EC50

Chain of mu-opioid receptor (MOR) (P35372 whole entry): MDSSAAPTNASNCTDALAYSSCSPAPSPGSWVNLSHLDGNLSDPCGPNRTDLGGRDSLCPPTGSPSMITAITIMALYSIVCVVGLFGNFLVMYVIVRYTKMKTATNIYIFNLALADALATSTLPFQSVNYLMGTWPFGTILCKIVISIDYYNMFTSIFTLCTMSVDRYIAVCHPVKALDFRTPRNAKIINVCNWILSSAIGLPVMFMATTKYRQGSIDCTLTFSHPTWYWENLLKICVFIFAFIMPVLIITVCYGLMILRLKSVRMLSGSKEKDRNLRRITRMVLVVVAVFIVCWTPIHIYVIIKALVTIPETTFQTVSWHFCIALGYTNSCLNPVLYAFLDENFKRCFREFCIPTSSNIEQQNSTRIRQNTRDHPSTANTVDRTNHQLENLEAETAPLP

Molecule | AUC ([1]; combined with a MOR antagonist) | EC50 [1, 4] [µM] | EC50 ([1]; FLIPR Ca^2+ EC50, combined with a MOR antagonist) [µM] | FLIPR Ca^2+ AUC ([1]; combined with a MOR antagonist) | EC50 [1, 5] [µM] | Activity of tail-flick test [2] | cAMP-inhibition response ([3]; % of forskolin-stimulated (1 μM) cAMP accumulation) [%] | EC50 ([3]; agonist alone) [µM]
[2H]C1(c2ccc(F)cc2)SCC(=O)N1c1ccc(C(=O)OCC)cc1C (centres unmarked) [Example 583, Ethyl 4-[2-(4-fluorophenyl)-4-oxo-2-d1-1,3-thiazolidin-3-yl]-3-methylbenzoate] | more than 5000 | < 10 | 4.42 | 11275 |  |  |  | 
CCONC(=O)c1ccc(N2C(=O)CSC2c2ccc(F)cc2)c(C)c1 (centres unmarked) [Example 588, N-Ethoxy-4-[2-(4-fluorophenyl)-4-oxo-1,3-thiazolidin-3-yl]-3-methylbenzamide] | more than 5000 | < 10 |  | 9986 | 9.27 |  |  | 
COCCOCCOC(=O)c1ccc(S(=O)(=O)NC(=O)c2ccc(N3C(=O)CSC3c3ccc(F)cc3)c(C)c2)cc1 (centres unmarked) [Example 591, 2-(2-Methoxyethoxy)ethyl 4-({4-[2-(4-fluorophenyl)-4-oxo-1,3-thiazolidin-3-yl]-3-methylbenzoyl}sulfamoyl)benzoate] | more than 5000 |  |  | 13033 | 10.3 |  |  | 
COCCS(=O)(=O)NC(=O)c1ccc(N2C(=O)CSC2c2ccc(F)cc2)c(C)c1 (centres unmarked) [Example 593, 4-[2-(4-Fluorophenyl)-4-oxo-1,3-thiazolidin-3-yl]-N-[(2-methoxyethyl)sulfonyl]-3-methylbenzamide] | more than 5000 | < 10 |  | 11543 | 2.21 |  |  | 
COCCOCCS(=O)(=O)NC(=O)c1ccc(N2C(=O)CSC2c2ccc(F)cc2)c(C)c1 (centres unmarked) [Example 597, 4-[2-(4-Fluorophenyl)-4-oxo-1,3-thiazolidin-3-yl]-N-{[2-(2-methoxyethoxy)ethyl]sulfonyl}-3-methylbenzamide] | more than 5000 | < 10 |  | 10720 | 1.12 |  |  | 
Cc1cc(C(O)C(F)(F)F)ccc1N1C(=O)CSC1c1ccc(F)cc1 (centres unmarked) [Example 600, 2-(4-Fluorophenyl)-3-[2-methyl-4-(2,2,2-trifluoro-1-hydroxyethyl)phenyl]-1,3-thiazolidin-4-one] | more than 5000 | < 10 |  | 13110 | 6.75 |  |  | 
Cc1cccnc1N1C(=O)CSC1c1ccc(F)cc1 (centres unmarked) [Example 629, 2-(4-Fluorophenyl)-3-(3-methylpyridin-2-yl)-1,3-thiazolidin-4-one] |  |  |  | 4804 | 10 |  |  | 
CCOC(=O)c1ccc(N2C(=O)CSC2c2ccc(F)cc2)c(C)n1 (centres unmarked) [Example 635, Ethyl 5-[2-(4-fluorophenyl)-4-oxo-1,3-thiazolidin-3-yl]-6-methylpyridine-2-carboxylate] | more than 5000 |  |  | 9843 | 10.9 |  |  | 
CC(C)(C)c1cc(N2C(=O)CSC2c2ccc(F)cc2)no1 (centres unmarked) [Example 640, 3-(5-tert-Butyl-1,2-oxazol-3-yl)-2-(4-fluorophenyl)-1,3-thiazolidin-4-one] | more than 5000 |  |  | 9872 | 14.2 |  |  | 
COC(=O)c1ccc(N2C(=O)CSC2c2ccsc2)c(C)c1 (centres unmarked) [Example 648, Methyl 3-methyl-4-[4-oxo-2-(thiophen-3-yl)-1,3-thiazolidin-3-yl]benzoate] | more than 5000 | < 10 |  | 9356 | 2.01 |  |  | 
N-Cyclobutyl-4-[2-(4-fluorophenyl)-4-oxo-1, 3-thiazolidin-3-yl]-3-methylbenzamide [Example 255] |  |  |  |  |  | + |  | 
[D-Pen(2),D-Pen(5)]-enkephalin [DPDPE] |  |  |  |  |  |  | 60 | 0.0005

— patent publication US10544113B2 (priority 2016, dated 2020)
